# Legend:
# AcpS = AcpS enzyme activity assay; type: biochemical, S. aureus and E. coli; conditions: [3H]-labeled holo-ACP formation
# Procedure: The acpS gene was amplified from S. aureus and E. coli genomic DNA and inserted into a pET23b vector using standard recombinant DNA methodology such that the protein product would result in addition of a C-terminal 6×-His tag in frame with the AcpS open reading frames. […] Recombinant His-Tagged AcpS expression was induced by IPTG addition and overnight culture. Cell lysate was obtained by sequential aspiration through 16, 18 and 21 G needles in a buffer of 50 mM Tris-HCl (pH 8.5), 10 mM MgCl2, 2 mM DTT, 5% glycerol, and further adjusted to pH 8.1 with MES. […] In a typical AcpS enzyme activity assay, 57 μM [^3H]-labeled acyl-CoA, 2 μg apo-ACP, 10 mM MgCl2, 5 mM DTT, 50 mM Na phosphate (pH 7.0), and AcpS in a final volume of 10 μL were incubated at room temperature in a 1.5 mL microcentrifuge tube. At 5, 10, 15, and 20 minutes 2 μL of reaction were added to 750 μL 10% TCA on ice. Bovine serum albumin (BSA; 20 μl of a 25 mg/ml solution) was then added to facilitate precipitation of radiolabeled protein. The samples were centrifuged at 12 000 rcf for 5 min. […] 2 mL of scintillation fluid was added, and the amount of [^3H]-labeled holo-ACP formed was quantified by liquid scintillation counting. Each data point (remaining AcpS enzyme activity) was expressed as a percentage of vehicle control, with the median value of four time points presented.
# [1] = tested on: mupirocin resistant strains of E. faecalis; assay: activity against mupirocin resistant strains; type: cell-based
# fatty acid synthase = assay: in vitro enzyme assay, selectivity; type: biochemical; conditions: ACP utilizing bacterial enzyme
# [2] = tested on: mupirocin resistant strains of E. faecalis VRE; assay: activity against mupirocin resistant strains; type: cell-based
# [3] = dermal pharmacokinetics on full thickness human cadaver skin (Franz cells); type: in vitro ADME; conditions: 2% w/w in GLAXAL BASE
# Description: Full thickness human skin was taken from the torso of a post-mortem human donor and stores at −80 degrees Celsius. On the day of the study, skin pieces were thawed for at least […] at room temperature in saline, then divided into individual pieces of approximately 2 cm length×2 cm width from which seven pieces of full thickness skin was selected. Approximately ⅔ of the width of the hypodermis layer was trimmed in order to mount the selected pieces into Franz cells. Receiver buffer was prepared (Krebs-Ringer bicarbonate buffer containing 10 mM HEPES, 15 mM sodium bicarbonate, and 1.2 mM calcium chloride; adjusted to pH 7.4 and fortified with 0.1% sodium azide and 1% bovine serum albumin). Each piece was equilibrated for 30 min with 12 mL of receiver buffer at 32 degrees Celsius by a water-jacket/stirring module running at 600 rpm. Transepithelial water loss was read for each piece after 30 mins using a vapometer. Exposed surface area of the piece was 1.77 square cm.
# Approximately 300 ul of 5-(2,5-bis(4-chloro-2-isopropylphenyl)thiophen-3-yl)-1H-tetrazole formulated in 2% w/w GLAXAL BASE™ (Emollient Cream) was applied directly through syringe on top of each piece. Receiver samples were taken from the receiver compartment of each Franz cell at 3, 6, 12, 18, and 24 hours and replaced with an equal volume of fresh, warm buffer to maintain sink conditions. At the end of 24 hours, the bulk amount of formulation remaining on each piece of skin was wiped using cotton tips, stored together in a dry vial for analysis. Epidermis and dermis were then separated gently using forceps after a brief heat treatment at 60 degrees Celsius for no longer than 2 minutes. Each layer was then blotted dry, weighted and stored in separate glass vials. All samples were stored at −80 degrees Celsius until analysis by LC/MS-MS.
# The cumulative concentrations of 5-(2,5-bis(4-chloro-2-isopropylphenyl)thiophen-3-yl)-1H-tetrazole that permeated at each time point were calculated by the sum of the measured concentration at that time point plus 1/12 of the measured concentrations at the previous time points (since 1 mL out of the 12 mL total receiver volume is withdrawn and replaced each time). The flux values over the course of the 24 hour permeation period were calculated from the slope of the linear portion of the curve. Flux was represented by the equation Flux=d[(Cr-T×Vr)/dt/A where Cr-T is the cumulative concentration at each time point (ng/mL); Vr is 12 mL; t is duration in hours; and A is the surface area of 1.77 square cm.
# [4] = tested on: panel of 125 important Gram positive strains and MDR clinical isolates of MRSA, VRE, and S. epidermidis; assay: MIC versus panel of 125 strains; type: cell-based; conditions: panel of 125 strains incl. strains resistant to vancomycin, penicillin, erythromycin and ciprofloxacin
# Procedure: Using a broth microdilution assay according to Clinical Laboratory Standards Institute (CSLI) guidelines, we tested 5-(2,5-bis(4-chloro-2-isopropylphenyl)thiophen-3-yl)-1H-tetrazole (“Test Article” in below table) to establish MICs against a broad range of MDR bacteria and noted substantive activity versus methicillin-resistant Staphylococcus aureus (MRSA), vancomycin-resistant Enterococcus (VRE) and Streptococcus spp. Antimicrobial susceptibility testing was performed by a microdilution broth assay according to CLSI guidelines. The inoculum was prepared from stationary-phase cultures diluted in water. Microtiter plate wells received aliquots of 100 μL of the compound diluted in Mueller-Hinton II cation adjusted media. The final concentration of compound typically ranged from 250 to 0.125 μg/ml in serial two-fold dilutions. In addition to the test compound, growth and sterility controls were included, along with DMSO vehicle control rows. The microtiter plates were inoculated with 5×10^5 bacteria and incubated overnight at 35° C. in a humidified atmosphere. […]
# [5] = end of 24 hour permeation, LC-MS/MS
smiles,measurement,setting,value
"CC(C)c1cc(Cl)ccc1-c1cc(-c2nnn[nH]2)c(-c2ccc(Cl)cc2C(C)C)s1 [Test Article, 5-(2,5-bis(4-chloro-2-isopropylphenyl)thiophen-3-yl)-1H-tetrazole]",AcpS inhibition,AcpS,inhibited
same,activity,[1],retained activity
same,inhibition of fatty acid synthase,fatty acid synthase,did not inhibit
same,activity,[2],retained activity
same,Flux from top through to bottom of skin,[3]; 24 hour permeation period,less than 0.141 ng/hr/cm^2
same,compound in the receiver samples,"[3]; end of 24 hour permeation period, lower limit of detection 0.5 ng/mL",no detectable
same,level in dermis,[3]; [5],0.821±0.469 ng per mg tissue
same,level in epidermis,[3]; [5],163±58.0 ng per mg tissue
same,level in hypodermis,[3]; [5],1.86±1.04 ng per mg tissue
same,MIC,[4],0.5 to 1 µg/mL
